Results as given in article PMC4220016, “The binding characteristics and orientation of a novel radioligand with distinct properties at 5-HT3A and 5-HT3AB receptors” (Neuropharmacology, 2014).
“And” between values parts separate entries of the source, which are not always exact repeats. Equal entries are not always repeated. Where two headings read alike, the source gives them in different places.

Assays:
[1] = biological target: T1, 5-HT3A receptor F226C (Homo sapiens, UniProt P46098, F221C); experiment: Saturation binding of [^3H]VUF10166 at 5-HT3A receptor mutant; conditions: F226C Kd versus wild type
T1 construct: expressed in transfected cells; host or cells: HEK 293
Experimental: (§1) Mutagenesis was performed using the QuikChange method (Agilent Technologies Inc., California, USA) on human 5-HT3A cDNA (accession number: P46098) cloned into pcDNA3.1 (Invitrogen, Paisley, UK). Cysteine residues were substituted for amino acids throughout each of the binding loops A–E (Fig. 1). To facilitate comparisons with previous work, we use the numbering of the equivalent residues in the mouse 5-HT3A subunit; for human numbering 5 should be subtracted from each residue number.
(§2) All data were analysed using GraphPad Prism 4.03. […].

[2] = biological target: T2, 5-HT3A receptor L126C (Homo sapiens, UniProt P46098, L121C); experiment: as above; conditions: L126C Kd versus wild type
T2 construct: expressed in transfected cells; host or cells: HEK 293
Experimental: as §1, §2

[3] = biological target: T3, 5-HT3A receptor Y153C (Homo sapiens, UniProt P46098, Y148C); experiment: as above; conditions: Y153C Kd versus wild type
T3 construct: expressed in transfected cells; host or cells: HEK 293
Experimental: as §1, §2

[4] = biological target: α7 nACh receptors (Homo sapiens, UniProt P36544); conditions: unlabelled VUF10166, ref Thompson et al., 2012; cited from earlier work
[5] = biological target: 5-HT3A receptors; parameters: method as in Thompson et al., 2012; conditions: ref Thompson et al., 2012, cited from earlier work
[6] = test system: 5-HT3 receptors; parameters: method as in Thompson et al., 2012; conditions: at μM concentrations; ref Thompson et al., 2012; cited from earlier work
[7] = biological target: T4, 5-HT3A receptors (Homo sapiens, UniProt P46098); experiment: biochemical
T4 sequence (P46098 24-478): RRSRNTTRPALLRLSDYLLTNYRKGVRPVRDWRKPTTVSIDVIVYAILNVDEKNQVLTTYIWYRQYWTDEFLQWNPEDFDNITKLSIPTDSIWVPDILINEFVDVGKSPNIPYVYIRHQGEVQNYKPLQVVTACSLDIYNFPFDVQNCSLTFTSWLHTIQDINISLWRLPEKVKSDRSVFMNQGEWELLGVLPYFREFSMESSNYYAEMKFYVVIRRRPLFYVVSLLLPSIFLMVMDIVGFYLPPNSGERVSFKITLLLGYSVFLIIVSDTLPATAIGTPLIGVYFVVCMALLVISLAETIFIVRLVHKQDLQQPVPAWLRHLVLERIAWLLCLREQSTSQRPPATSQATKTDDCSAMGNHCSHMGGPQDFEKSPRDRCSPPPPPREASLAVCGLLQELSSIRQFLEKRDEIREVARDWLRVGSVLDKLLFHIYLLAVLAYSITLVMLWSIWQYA

[8] = biological target: T5, 5-HT3AB receptors (Homo sapiens, UniProt O95264+P46098); experiment: biochemical; conditions: Ki (nM) competition
T5 sequence (P46098 24-478): T4 sequence (P46098 24-478)
T5 sequence (O95264 22-441): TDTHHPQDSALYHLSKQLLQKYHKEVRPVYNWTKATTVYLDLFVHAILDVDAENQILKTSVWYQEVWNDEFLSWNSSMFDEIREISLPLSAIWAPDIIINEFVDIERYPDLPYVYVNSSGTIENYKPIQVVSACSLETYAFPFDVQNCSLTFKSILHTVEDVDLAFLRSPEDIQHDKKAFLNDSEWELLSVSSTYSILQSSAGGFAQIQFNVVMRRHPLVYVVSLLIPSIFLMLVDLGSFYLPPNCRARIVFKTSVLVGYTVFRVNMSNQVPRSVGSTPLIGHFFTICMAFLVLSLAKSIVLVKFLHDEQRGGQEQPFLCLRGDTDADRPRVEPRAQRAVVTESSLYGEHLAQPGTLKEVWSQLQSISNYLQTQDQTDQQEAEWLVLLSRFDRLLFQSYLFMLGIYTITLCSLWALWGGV

[9] = biological target: T4, 5-HT3A receptors; experiment: biochemical; assay type: binding; parameters: expressed in transfected cells; host or cells: HEK 293; conditions: 5-HT3A; tritiated ligand, transfected HEK 293 cells, 0 °C; read-out: Kd (nM) saturation
[10] = biological target: T4, 5-HT3A receptors; experiment: Kinetic measurements (association, dissociation) at 5-HT3A receptors; assay type: binding; parameters: expressed in transfected cells; host or cells: HEK 293
[11] = biological target: T5, 5-HT3AB receptors; experiment: Kinetic measurements (association, dissociation) at 5-HT3AB receptors; assay type: binding; parameters: expressed in transfected cells; host or cells: HEK 293; conditions: for koff: from kobs plot; for Kd: from kinetic rates, Equ (4), read-out: Kd(nM) (kon/koff)
[12] = biological target: T4, 5-HT3A receptors; conditions: competition with 0.7 nM [^3H]BRL43694
[13] = biological target: T5, 5-HT3AB receptors; conditions: competition with 0.7 nM [^3H]BRL43694
[14] = biological target: T4, 5-HT3A receptors; experiment: Competition binding with [^3H]VUF10166 at 5-HT3A receptors
[15] = biological target: T5, 5-HT3AB receptors; experiment: Competition binding with [^3H]VUF10166 at 5-HT3AB receptors

T2 sequence (P46098 24-478 L121C): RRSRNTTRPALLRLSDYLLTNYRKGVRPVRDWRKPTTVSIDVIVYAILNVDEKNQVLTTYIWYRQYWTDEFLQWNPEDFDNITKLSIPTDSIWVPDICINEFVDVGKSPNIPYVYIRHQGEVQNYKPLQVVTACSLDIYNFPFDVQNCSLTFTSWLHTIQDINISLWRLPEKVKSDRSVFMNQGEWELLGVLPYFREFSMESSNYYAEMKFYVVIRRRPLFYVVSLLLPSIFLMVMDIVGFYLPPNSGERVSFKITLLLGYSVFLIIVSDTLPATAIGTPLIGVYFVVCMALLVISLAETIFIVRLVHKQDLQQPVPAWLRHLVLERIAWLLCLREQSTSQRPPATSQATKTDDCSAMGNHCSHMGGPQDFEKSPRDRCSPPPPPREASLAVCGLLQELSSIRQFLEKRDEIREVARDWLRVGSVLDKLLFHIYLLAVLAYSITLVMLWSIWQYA
T3 sequence (P46098 24-478 Y148C): as the sequence (P46098 24-478 L121C) above, with C98L, Y125C counted along it
T1 sequence (P46098 24-478 F221C): as the sequence (P46098 24-478 L121C) above, with C98L, F198C counted along it
Chain of α7 nACh receptors (P36544 23-502): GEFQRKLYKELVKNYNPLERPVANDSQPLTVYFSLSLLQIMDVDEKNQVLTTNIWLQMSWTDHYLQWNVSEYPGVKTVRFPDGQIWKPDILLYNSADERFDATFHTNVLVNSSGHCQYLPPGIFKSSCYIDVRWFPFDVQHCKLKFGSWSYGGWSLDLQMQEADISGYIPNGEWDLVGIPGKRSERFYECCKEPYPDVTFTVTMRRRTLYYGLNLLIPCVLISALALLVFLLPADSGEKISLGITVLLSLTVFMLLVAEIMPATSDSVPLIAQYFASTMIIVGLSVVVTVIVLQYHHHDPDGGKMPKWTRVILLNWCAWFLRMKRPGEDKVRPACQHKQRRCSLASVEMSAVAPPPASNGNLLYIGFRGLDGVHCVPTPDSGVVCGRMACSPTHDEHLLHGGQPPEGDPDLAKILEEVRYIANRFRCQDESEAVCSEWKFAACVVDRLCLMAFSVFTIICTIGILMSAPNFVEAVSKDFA

## CN1CCN(c2nc3ccccc3nc2Cl)CC1 [VUF10166, 2-chloro-3-(4-methylpiperazin-1-yl)quinoxaline]
[1]
  Fold change: 7
[2]
  Fold change: ~4
[3]
  Fold change: 10
[4]
  competition with [^3H]epibatidine (in words): does not compete
[5]; 5-HT3A receptors
  pKi: ~10
[5]
  affinity at 5-HT3A relative to 5-HT3AB receptors: ~100 fold
[6]
  agonist activity (in words): low efficacy partial agonist
[7]
  Ki: 0.24 ± 0.11 nM
[8]
  Ki: 37 nM and 36.7 nM
[9]
  Kd: 0.18 ± 0.04 nM
[10]; calculated from kinetic rates, Equ (4), read-out: Kd(nM) (kon/koff)
  Kd: 0.16 nM
[10]; intercept of plot of kobs versus radioligand concentration, read-out: koff (converted)
  koff: 0.000167 s⁻¹
[10]; slope of plot of kobs versus radioligand concentration, read-out: kon (converted)
  kon: 1.04e+06 M⁻¹ s⁻¹
[11]; first component of two site fit, [^3H]VUF10166 < 3 nM
  kon: 1.02e+06 M⁻¹ s⁻¹
[11]; first component, [^3H]VUF10166 < 3 nM, read-out: koff (converted)
  koff: 0.0004 s⁻¹
[11]; first component
  Kd: 0.38 nM
[11]; second component (>3 nM)
  Kd: 22.4 nM
[11]; second component of two site fit, [^3H]VUF10166 > 3 nM
  kon: 120000 M⁻¹ s⁻¹
[11]; second component, [^3H]VUF10166 > 3 nM
  koff: 0.0027 s⁻¹
[11]; second component, [^3H]VUF10166 > 3 nM, read-out: koff (converted)
  koff: 0.00267 s⁻¹

## NC(N)=NC(N)=Nc1cccc(Cl)c1 [mCPBG, meta-chlorophenylbiguanide]
[12]
  pIC50 5-HT3A: 6.88 ± 0.13 (7)
[13]
  pIC50 5-HT3AB: 6.64 ± 0.12 (5)
[14]; 5-HT3A
  inhibition of specific [^3H]VUF10166 binding (in words): inhibited
[14]; competition with 0.2 nM [^3H]VUF10166
  pIC50 5-HT3A: 7.49 ± 0.06 (4)
[15]; 5-HT3AB
  inhibition of specific [^3H]VUF10166 binding (in words): inhibited
[15]; competition with 0.6 nM [^3H]VUF10166
  pIC50 5-HT3AB: 6.07 ± 0.20 (5)
